According to publication PMC11439681, “The identification of potent dual-target monopolar spindle 1 (MPS1) and histone deacetylase 8 (HDAC8) inhibitors through pharmacophore modeling, molecular docking, molecular dynamics simulations, and biological evaluation” (Frontiers in Pharmacology, 2024):

Legend:
Assay in all cases: In vitro selectivity assay
Type in all cases: biochemical
Conditions in all cases: selectivity panel
EPHB3 = molecular target: T1, EPHB3 (Homo sapiens, UniProt P54753)
T1 construct: ICE Bioscience Inc. (assay service)
Experimental: (§1) The inhibitory effects of compound MPH-5 on a panel of 68 kinases and other histone deacetylases were evaluated to assess the selectivity profile of MPH-5. This experiment was conducted by ICE Bioscience Inc. (Beijing, China).

MET = molecular target: T2, MET (Homo sapiens, UniProt P08581)
T2 construct: ICE Bioscience Inc. (contract assay provider)
Experimental: as §1

ABL2 = molecular target: T3, ABL2 (Homo sapiens, UniProt P42684)
T3 construct: ICE Bioscience Inc. (assay service)
Experimental: as §1

KDR = molecular target: T4, KDR (Homo sapiens, UniProt P35968)
T4 construct: ICE Bioscience Inc. (contract assay provider)
Experimental: as §1

AXL = molecular target: T5, AXL (Homo sapiens, UniProt P30530)
T5 construct: ICE Bioscience Inc. (assay service)
Experimental: as §1

EPHA3 = molecular target: T6, EPHA3 (Homo sapiens, UniProt P29320)
T6 construct: ICE Bioscience Inc. (assay service)
Experimental: as §1

DDR1 = molecular target: T7, DDR1 (Homo sapiens, UniProt Q08345)
T7 construct: ICE Bioscience Inc. (assay service)
Experimental: as §1

JAK1 = JAK1 (Homo sapiens, UniProt P23458)
Experimental: as §1

ABL1 = molecular target: T8, ABL1 (Homo sapiens, UniProt P00519)
T8 construct: ICE Bioscience Inc. (assay service)
Experimental: as §1

EPHA1 = molecular target: T9, EPHA1 (Homo sapiens, UniProt P21709)
T9 construct: ICE Bioscience Inc. (assay service)
Experimental: as §1

CDK2 = molecular target: T10, CDK2 (Homo sapiens, UniProt P24941)
T10 construct: ICE Bioscience Inc. (assay service)
Experimental: as §1

EPHA6 = molecular target: T11, EPHA6 (Homo sapiens, UniProt Q9UF33)
T11 construct: ICE Bioscience Inc. (assay service)
Experimental: as §1

FGFR4 = FGFR4 (Homo sapiens, UniProt P22455)
Experimental: as §1

ZAK = ZAK (Homo sapiens, UniProt Q9NYL2)
Experimental: as §1

SRC = molecular target: T12, SRC (Homo sapiens, UniProt P12931)
T12 construct: ICE Bioscience Inc. (contract assay provider)
Experimental: as §1

JAK2 = JAK2 (Homo sapiens, UniProt O60674)
Sequence of JAK2 (O60674 whole entry): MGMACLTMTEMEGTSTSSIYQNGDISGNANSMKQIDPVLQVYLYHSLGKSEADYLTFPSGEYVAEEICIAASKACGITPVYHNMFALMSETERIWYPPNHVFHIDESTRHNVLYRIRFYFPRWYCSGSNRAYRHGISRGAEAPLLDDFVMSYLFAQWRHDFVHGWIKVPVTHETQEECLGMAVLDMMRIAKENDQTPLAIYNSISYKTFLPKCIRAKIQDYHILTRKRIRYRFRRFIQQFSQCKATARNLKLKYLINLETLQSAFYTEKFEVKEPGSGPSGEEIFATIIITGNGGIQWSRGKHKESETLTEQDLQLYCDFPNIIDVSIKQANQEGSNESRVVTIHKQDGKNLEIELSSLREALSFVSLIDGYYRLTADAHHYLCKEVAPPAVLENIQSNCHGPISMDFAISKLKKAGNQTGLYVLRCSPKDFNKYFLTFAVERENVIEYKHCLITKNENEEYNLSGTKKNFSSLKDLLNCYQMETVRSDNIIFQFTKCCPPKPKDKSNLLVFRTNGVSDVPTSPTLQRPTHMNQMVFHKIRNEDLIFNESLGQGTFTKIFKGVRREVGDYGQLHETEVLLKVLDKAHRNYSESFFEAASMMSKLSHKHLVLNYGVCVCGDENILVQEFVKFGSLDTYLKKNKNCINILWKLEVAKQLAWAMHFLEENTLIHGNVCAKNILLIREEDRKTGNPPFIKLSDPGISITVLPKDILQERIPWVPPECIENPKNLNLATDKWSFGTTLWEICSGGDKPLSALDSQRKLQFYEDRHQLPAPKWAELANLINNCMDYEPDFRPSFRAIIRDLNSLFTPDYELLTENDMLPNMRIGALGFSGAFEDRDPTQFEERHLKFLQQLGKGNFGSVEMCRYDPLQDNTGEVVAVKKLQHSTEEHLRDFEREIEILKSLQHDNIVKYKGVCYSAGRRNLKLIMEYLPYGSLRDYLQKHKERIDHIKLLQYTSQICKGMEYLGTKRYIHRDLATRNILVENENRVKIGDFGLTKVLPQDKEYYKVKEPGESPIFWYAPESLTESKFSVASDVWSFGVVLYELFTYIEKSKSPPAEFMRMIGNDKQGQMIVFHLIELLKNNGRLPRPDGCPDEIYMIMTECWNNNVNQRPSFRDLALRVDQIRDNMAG
Experimental: as §1

FES = FES (Homo sapiens, UniProt P07332)
Experimental: as §1

HDAC3 = molecular target: T13, HDAC3 (Homo sapiens, UniProt O15379)
T13 construct: ICE Bioscience Inc. (contract assay provider)
Experimental: as §1

RAF1 = RAF1 (Homo sapiens, UniProt P04049)
Experimental: as §1

SYK = molecular target: T14, SYK (Homo sapiens, UniProt P43405)
T14 construct: ICE Bioscience Inc. (contract assay provider)
Experimental: as §1

BMX = molecular target: T15, BMX (Homo sapiens, UniProt P51813)
T15 construct: ICE Bioscience Inc. (assay service)
Experimental: as §1

FGFR2 = FGFR2 (Homo sapiens, UniProt P21802)
Experimental: as §1

EPHA7 = molecular target: T16, EPHA7 (Homo sapiens, UniProt Q15375)
T16 construct: ICE Bioscience Inc. (assay service)
Experimental: as §1

HDAC4 = molecular target: T17, HDAC4 (Homo sapiens, UniProt P56524)
T17 construct: ICE Bioscience Inc. (contract assay provider)
Experimental: as §1

FGFR3 = FGFR3 (Homo sapiens, UniProt P22607)
Sequence of FGFR3 (P22607 23-806): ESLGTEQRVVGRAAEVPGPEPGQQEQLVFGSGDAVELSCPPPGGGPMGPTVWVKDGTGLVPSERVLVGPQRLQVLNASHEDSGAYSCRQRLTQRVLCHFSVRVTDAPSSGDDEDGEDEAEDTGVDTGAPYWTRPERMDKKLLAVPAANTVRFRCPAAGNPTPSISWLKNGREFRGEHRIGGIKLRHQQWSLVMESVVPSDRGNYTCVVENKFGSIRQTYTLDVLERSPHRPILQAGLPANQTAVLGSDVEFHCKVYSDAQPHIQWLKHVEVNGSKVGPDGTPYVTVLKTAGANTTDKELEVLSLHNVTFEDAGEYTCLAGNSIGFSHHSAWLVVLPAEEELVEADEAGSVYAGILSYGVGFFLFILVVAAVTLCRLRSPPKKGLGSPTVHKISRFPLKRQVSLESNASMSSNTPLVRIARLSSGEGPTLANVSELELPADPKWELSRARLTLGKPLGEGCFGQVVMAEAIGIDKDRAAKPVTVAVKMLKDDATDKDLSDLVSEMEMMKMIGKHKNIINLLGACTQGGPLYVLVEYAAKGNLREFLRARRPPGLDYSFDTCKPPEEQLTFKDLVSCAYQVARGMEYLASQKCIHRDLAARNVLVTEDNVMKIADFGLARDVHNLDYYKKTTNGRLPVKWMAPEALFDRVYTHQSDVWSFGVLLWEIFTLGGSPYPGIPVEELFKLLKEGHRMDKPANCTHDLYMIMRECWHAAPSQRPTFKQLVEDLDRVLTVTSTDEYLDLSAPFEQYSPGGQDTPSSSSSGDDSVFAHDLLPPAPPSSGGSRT
Experimental: as §1

EPHA2 = molecular target: T18, EPHA2 (Homo sapiens, UniProt P29317)
T18 construct: ICE Bioscience Inc. (assay service)
Experimental: as §1

HCK = HCK (Homo sapiens, UniProt P08631)
Experimental: as §1

CSF1R = molecular target: T19, CSF1R (Homo sapiens, UniProt P07333)
T19 construct: ICE Bioscience Inc. (assay service)
Experimental: as §1

EPHB2 = molecular target: T20, EPHB2 (Homo sapiens, UniProt P29323)
T20 construct: ICE Bioscience Inc. (assay service)
T20 sequence (P29323 19-1055): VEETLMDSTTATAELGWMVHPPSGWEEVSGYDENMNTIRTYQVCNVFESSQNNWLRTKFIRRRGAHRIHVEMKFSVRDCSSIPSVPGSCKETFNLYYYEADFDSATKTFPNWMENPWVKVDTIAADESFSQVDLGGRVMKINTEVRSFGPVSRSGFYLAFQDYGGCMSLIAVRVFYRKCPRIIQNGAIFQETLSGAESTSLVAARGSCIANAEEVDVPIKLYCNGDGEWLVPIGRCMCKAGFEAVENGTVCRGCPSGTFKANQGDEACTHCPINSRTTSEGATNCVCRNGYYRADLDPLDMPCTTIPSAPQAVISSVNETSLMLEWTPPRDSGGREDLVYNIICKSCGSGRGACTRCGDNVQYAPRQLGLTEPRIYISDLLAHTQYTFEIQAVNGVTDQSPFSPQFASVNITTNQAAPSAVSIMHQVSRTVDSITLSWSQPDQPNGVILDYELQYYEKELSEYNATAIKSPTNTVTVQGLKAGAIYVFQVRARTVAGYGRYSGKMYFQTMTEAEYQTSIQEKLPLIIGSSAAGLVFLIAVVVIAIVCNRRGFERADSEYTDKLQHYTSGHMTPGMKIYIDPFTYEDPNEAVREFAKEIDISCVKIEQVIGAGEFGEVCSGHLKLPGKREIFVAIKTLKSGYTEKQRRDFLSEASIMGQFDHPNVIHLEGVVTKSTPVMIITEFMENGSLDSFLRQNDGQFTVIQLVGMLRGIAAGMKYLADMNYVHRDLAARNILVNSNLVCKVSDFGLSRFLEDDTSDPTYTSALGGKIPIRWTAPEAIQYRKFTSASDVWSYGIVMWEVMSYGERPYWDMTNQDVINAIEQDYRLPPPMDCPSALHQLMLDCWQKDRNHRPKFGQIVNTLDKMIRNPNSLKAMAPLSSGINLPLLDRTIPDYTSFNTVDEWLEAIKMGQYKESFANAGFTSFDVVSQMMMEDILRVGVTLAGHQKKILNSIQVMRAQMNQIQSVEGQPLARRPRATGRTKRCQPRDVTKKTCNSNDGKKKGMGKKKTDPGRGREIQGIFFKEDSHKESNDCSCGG
Experimental: as §1

NTRK3 = molecular target: T21, NTRK3 (Homo sapiens, UniProt Q16288)
T21 construct: ICE Bioscience Inc. (contract assay provider)
Experimental: as §1

ITK = ITK (Homo sapiens, UniProt Q08881)
Sequence of ITK (Q08881 whole entry): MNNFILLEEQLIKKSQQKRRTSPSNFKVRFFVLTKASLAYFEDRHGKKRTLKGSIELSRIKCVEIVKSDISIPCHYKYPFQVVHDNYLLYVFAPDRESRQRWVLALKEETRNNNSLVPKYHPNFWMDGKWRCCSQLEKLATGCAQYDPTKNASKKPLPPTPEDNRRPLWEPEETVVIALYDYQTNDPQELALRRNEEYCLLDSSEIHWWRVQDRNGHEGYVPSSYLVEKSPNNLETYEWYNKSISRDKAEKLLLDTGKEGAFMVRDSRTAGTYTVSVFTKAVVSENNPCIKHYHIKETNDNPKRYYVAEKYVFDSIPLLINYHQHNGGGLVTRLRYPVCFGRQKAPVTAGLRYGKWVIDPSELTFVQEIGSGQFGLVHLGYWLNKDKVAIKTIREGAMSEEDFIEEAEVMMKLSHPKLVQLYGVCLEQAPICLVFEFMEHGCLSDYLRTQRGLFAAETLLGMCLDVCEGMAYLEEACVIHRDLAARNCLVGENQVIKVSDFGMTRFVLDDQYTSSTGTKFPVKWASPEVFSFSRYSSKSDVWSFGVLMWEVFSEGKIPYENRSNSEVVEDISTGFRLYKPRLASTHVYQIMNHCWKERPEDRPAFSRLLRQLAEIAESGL
Experimental: as §1

LTK = molecular target: T22, LTK (Homo sapiens, UniProt P29376)
T22 construct: ICE Bioscience Inc. (contract assay provider)
Experimental: as §1

MERTK = molecular target: T23, MERTK (Homo sapiens, UniProt Q12866)
T23 construct: ICE Bioscience Inc. (contract assay provider)
Experimental: as §1

ERBB4 = ERBB4 (Homo sapiens, UniProt Q15303)
Experimental: as §1

MST1R = molecular target: T24, MST1R (Homo sapiens, UniProt Q04912)
T24 construct: ICE Bioscience Inc. (contract assay provider)
T24 sequence (Q04912 25-1400): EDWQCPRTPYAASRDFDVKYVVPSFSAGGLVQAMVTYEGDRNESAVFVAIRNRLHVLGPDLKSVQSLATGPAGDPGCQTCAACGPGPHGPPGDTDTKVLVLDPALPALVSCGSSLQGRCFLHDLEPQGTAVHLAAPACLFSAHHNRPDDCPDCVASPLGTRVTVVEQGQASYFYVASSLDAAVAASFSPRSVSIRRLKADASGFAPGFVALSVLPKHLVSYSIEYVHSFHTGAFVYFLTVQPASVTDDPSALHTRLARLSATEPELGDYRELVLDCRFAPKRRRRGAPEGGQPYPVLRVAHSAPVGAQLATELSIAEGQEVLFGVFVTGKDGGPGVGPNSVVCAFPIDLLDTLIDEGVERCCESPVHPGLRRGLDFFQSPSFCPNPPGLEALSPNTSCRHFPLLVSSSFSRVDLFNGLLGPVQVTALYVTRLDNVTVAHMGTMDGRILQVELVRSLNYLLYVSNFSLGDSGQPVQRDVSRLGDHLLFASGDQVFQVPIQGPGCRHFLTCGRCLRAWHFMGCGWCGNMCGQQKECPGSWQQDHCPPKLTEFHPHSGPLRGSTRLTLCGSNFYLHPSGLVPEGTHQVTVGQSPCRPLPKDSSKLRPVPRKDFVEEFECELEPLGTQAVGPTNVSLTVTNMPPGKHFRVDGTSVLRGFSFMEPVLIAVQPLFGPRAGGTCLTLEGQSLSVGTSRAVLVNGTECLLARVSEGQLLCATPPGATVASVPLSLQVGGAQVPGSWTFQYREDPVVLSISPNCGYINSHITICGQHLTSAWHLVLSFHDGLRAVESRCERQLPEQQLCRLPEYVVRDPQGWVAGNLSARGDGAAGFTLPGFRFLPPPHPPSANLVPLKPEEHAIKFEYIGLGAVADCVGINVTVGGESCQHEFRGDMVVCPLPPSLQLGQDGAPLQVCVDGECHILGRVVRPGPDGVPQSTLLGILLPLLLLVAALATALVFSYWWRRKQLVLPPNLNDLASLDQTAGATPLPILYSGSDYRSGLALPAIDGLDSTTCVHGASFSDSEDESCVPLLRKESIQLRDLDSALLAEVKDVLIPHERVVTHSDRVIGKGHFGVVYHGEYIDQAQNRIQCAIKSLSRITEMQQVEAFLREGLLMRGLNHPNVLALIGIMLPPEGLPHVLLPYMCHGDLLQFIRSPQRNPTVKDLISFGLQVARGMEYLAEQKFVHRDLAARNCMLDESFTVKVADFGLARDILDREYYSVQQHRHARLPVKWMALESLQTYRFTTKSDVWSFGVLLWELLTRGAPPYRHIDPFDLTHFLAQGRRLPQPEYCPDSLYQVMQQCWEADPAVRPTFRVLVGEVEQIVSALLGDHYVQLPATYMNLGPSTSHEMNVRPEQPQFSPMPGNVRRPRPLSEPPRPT
Experimental: as §1

PTK6 = molecular target: T25, PTK6 (Homo sapiens, UniProt Q13882)
T25 construct: ICE Bioscience Inc. (contract assay provider)
Experimental: as §1

HDAC7 = molecular target: T26, HDAC7 (Homo sapiens, UniProt Q8WUI4)
T26 construct: ICE Bioscience Inc. (Beijing, China), the contract lab that ran the assay
Experimental: as §1

LYN = molecular target: T27, LYN (Homo sapiens, UniProt P07948)
T27 construct: ICE Bioscience Inc. (contract assay provider)
Experimental: as §1

PTK2 = molecular target: T28, PTK2 (Homo sapiens, UniProt Q05397)
T28 construct: ICE Bioscience Inc. (contract assay provider)
Experimental: as §1

MUSK = molecular target: T29, MUSK (Homo sapiens, UniProt O15146)
T29 construct: ICE Bioscience Inc. (contract assay provider)
Experimental: as §1

RET = molecular target: T30, RET (Homo sapiens, UniProt P07949)
T30 construct: ICE Bioscience Inc. (contract assay provider)
Experimental: as §1

FRK = FRK (Homo sapiens, UniProt P42685)
Experimental: as §1

HDAC1 = molecular target: T31, HDAC1 (Homo sapiens, UniProt Q13547)
T31 construct: ICE Bioscience Inc. (contract assay provider)
Experimental: as §1

Measured: IC50

Cn1cc(-c2cc3cnc(Nc4ccc(-c5cncn5/C=C/C(=O)NO)cc4Cl)cc3n2C(=O)OC(C)(C)C)cn1 [MPH-5]
> 10 µM: all assays above
